Holding throughout (format): cell-based, human
Experiment [1] has as its system parental and drug-resistant HCT116 and LoVo cell lines. Put plainly: MTT viability assay, HCT116 and LoVo cell lines. The note with it: Homo sapiens; parental HCT116 and LoVo; 48 h; 0.8 μM SN38 (highest dose tested); read-out: viable cells remaining. Here is the method:
Fig. 2 DL-TBOA augments SN38-induced death in SN38-resistant cells, but protects oxaliplatin-resistant cells from oxaliplatin-induced death. Parental and drug-resistant HCT116 and LoVo cell lines seeded in 96-well dishes were exposed to SN38 (0.1 or 0.8 μM) or oxaliplatin (0.8 or 20 μM), alone or in combination with 70 or 350 μM DL-TBOA as indicated, for 48 h. Viability was assessed by MTT assay. a-b Parental HCT116 cells, (c) SN38 resistant HCT116 cells, (d) Oxaliplatin-resistant HCT116 cells, (e-f) Parental LoVo cells, (g) SN38 resistant LoVo cells, (h) Oxaliplatin-resistant LoVo cells. Data are means with S.E.M. error bars of 3 independent experiments. *) p < 0.05, **) p < 0.01, ***) p < 0.001 compared to the control group without drug or TBOA treatment; #) p < 0.05 compared to controls without TBOA treatment. One-way ANOVA followed by Dunnett post-test
Cells were seeded at appropriate density (LoVo 10,000, and HCT116 5000 cells /100 μl) in growth medium in 96-well plates. Next day, cells were treated with inhibitors and/or chemotherapy in a total volume of 200 μl in growth medium and incubated for 48 h at 37 °C, 5 % CO2. The medium was replaced with 100 μl of 0.5 mg/ml 3-(4,5-dimethylthiazol-2-yl)-2,5-diphenyltetrazolium bromide (MTT) in growth medium. The reaction was stopped 1.5-2.5 h later by addition of 100 μl 20 % SDS in 0.02 M HCl, and incubation overnight to allow complete lysis of cells and formazan crystals. Absorbance was measured in an ELISA plate reader (Thermo Scientific MultiScan FC) at 550 nm. Data were background subtracted and % viability relative to controls calculated.

In experiment [2] the test system is cellular reduced glutathione (GSH). Put plainly: Cellular GSH level. As to conditions: parental HCT116 cells; 24 h; 0.8 μM SN38 or 20 μM oxaliplatin. Here is the method: Fig. 4 Effect of glutamate transporter inhibition on cellular GSH levels. a Basal intracellular GSH levels were measured as described in Materials and Methods, and normalized to total protein in the samples. b-c Normalized basal GSH levels under control conditions, in HCT116 and LoVo parental and resistant cells after 24 h of treatment with 0.8 μM SN38 or 20 μM oxaliplatin, in absence or presence of DL-TBOA (350 μM) as shown. * p < 0.05 vs untreated control group (n = 5). One-way ANOVA followed by Dunnett post-test
Cells were seeded in 24-well plates (10^4 cells per well), treated the next day with chemotherapy and/or DL-TBOA and incubated for 24 h. Medium was removed and cells were washed twice with ice-cold PBS, which was removed and 500 μl ice-cold 1 % Sulfosalicylic acid was added per well. Cells were incubated on ice for at least 10 min. After centrifugation (1 min, 15,000 g), 10 μl lysate was used to determine total GSx content. To measure GSSG content, 130 μl sample was mixed with 55 μl 0.2 M Tris (pH 9) and 5 μl 2-Vinylpyridine. Tubes were vortexed carefully and incubated for at least 1 h at room temperature. 10 μl of this mix was mixed first with 90 μl of water in a 96-well plate and then with a reaction mix (0.1 M sodium phosphate buffer pH 7.5 containing 1 mM EDTA, 10 mM NADPH, 10 mM DTNB and 0.05 μl Glutathione reductase, 2U/μl). Measurements were taken every 30 s for 10 min in an ELISA plate reader (Thermo Scientific MultiScan FC) at 405 nm absorbance. GSH values were obtained by subtraction of GSSG values from GSx values.

The next experiment has as its system p53. Put plainly: p53 protein level by Western blotting. As to conditions: 24 h. Here is the method: Fig. 5 Effects of DL-TBOA on cell death and survival parameters after chemotherapy treatment. Parental and drug-resistant HCT116 (a) and LoVo (b) cell lines were exposed to SN38 (0.8 μM) or oxaliplatin (20 μM), alone or in combination with 350 μM DL-TBOA as indicated, for 24 h. Equal amounts of protein per lane were separated by SDS-PAGE and the protein level of p53 was determined by Western blotting. Top: Representative Western blots, with p150 as loading control. Bottom: Densitometric quantifications based on 3 independent experiments per condition. Data are means with S.E.M. error bars of 3 independent experiments. *) p < 0.05, **) p < 0.01, ***) p < 0.001,****) p < 0.0001 compared to the control group without drug or TBOA treatment; Two-way ANOVA with Tukey post-test
(§1) Cells were grown to a confluence of 60-80 % and treated with chemotherapy, siRNA- or plasmid transfection as indicated. Cells were washed once in PBS, lysed in lysis buffer (1 % SDS, 0.1 M Tris pH 7.5, and 1 mM Na3VO4), sonicated, and protein content determined (DC assay, BioRad). Lysates were mixed 2:1with NuPage LDS sample buffer (Invitrogen). SDS-PAGE was carried out in NOVEX chambers with NuPAGE 10 % Bis-Tris gels under reducing and denaturing conditions, using BenchMark protein ladder (Invitrogen), and 15 μg protein per lane. Proteins were transferred to PVDF membranes, which were Ponceau S stained, blocked for 1 h at 37 °C in 5 % nonfat dry milk in TBST (0.01 M Tris/HCl, 0.15 M NaCl, 0.1 % Tween 20, pH 7.4), incubated overnight at 4 °C with primary antibodies diluted in blocking buffer, washed in TBST, incubated with secondary antibodies for 1 h, washed in TBST, and developed using BCIP/NBT (KPL). Bands were scanned and quantified using UN-SCAN-IT (Silk Scientific).

The subject of a further experiment is p21^WAF1/Cip (p21). Briefly: p21 protein level by Western blotting. The note with it: 24 h. The procedure: as §1
Supplementary file 12885_2015_1405_MOESM3_ESM.tiff: Additional file 3: Figure S3. Effects of DL-TBOA on cell death and survival parameters after chemotherapy treatment of HCT116 cells. Parental and drug-resistant HCT116 cell lines seeded in 6-well dishes were exposed to SN38 (0.8 μM) or oxaliplatin (20 μM), alone or in combination with 350 μM DL-TBOA as indicated, for 24 h. Equal amounts of protein per lane were separated by SDS-PAGE and the protein levels of p21, and PARP-1 (full-length and cleaved, the latter indicated by arrowheads) were determined by Western blotting. Top: Representative Western blots, with p150 as loading control. Bottom: Densitometric quantifications based on 3 independent experiments per condition. Data are means with S.E.M. error bars of 3 independent experiments. *) p < 0.05, **) p < 0.01, ***) p < 0.001,****) p < 0.0001 compared to the control group without drug or TBOA treatment; #) p < 0.05 compared to controls without TBOA treatment. Two-way ANOVA with Tukey post-test.

The test system of the next experiment is PARP-1 cleavage. Briefly: PARP-1 cleavage by Western blotting. The note with it: HCT116 parental, oxaliplatin-resistant and SN38-resistant cells; 0.8 μM SN38, 24 h. The procedure: as §1
Supplementary file 12885_2015_1405_MOESM3_ESM.tiff: Additional file 3: Figure S3. […] Equal amounts of protein per lane were separated by SDS-PAGE and the protein levels of p21, and PARP-1 (full-length and cleaved, the latter indicated by arrowheads) were determined by Western blotting. […] Bottom: Densitometric quantifications based on 3 independent experiments per condition. […]

Experiment [3] relates to SLC1A1 localization in HCT116 cells. Put plainly: Immunofluorescence analysis of SLC1A1 subcellular localization. The note with it: parental HCT116 cells; 48 h; 0.8 μM SN38 or 20 μM oxaliplatin. Here is the method: Immunofluorescence analysis was carried out essentially as in [47]. Cells grown on glass coverslips were fixed in 2 % paraformaldehyde, washed in TBST, permeabilized for 5 min (0.5 % Triton X-100 in TBST), blocked for 30 min in 5 % BSA in TBST, incubated with SLC1A1 primary antibody in TBST + 1 % BSA overnight at 4 °C, washed in TBST, and with Rhodamine-phalloidin and AlexaFluor488 conjugated secondary antibody (1:600 in TBS + 1 % BSA) for 1 h, followed by washing in TBST, and mounting in N-propyl-galleate mounting medium (2 % w/v in PBS/glycerol). DAPI was added for 3 min following incubation with the secondary antibody. Cells were visualized using the 60X/1.35 NA objective of an Olympus Bx63 epifluorescence microscope. […] Overlays were carried out using Adobe Photoshop software. No other image adjustment was performed.

[4] abbreviates: SN38-resistant HCT116 cells, 0.8 μM SN38 or 20 μM oxaliplatin.
The mark [5] stands for this setting: oxaliplatin-resistant HCT116 cells, 0.8 μM SN38.
The mark [6] stands for this setting: parental HCT116 cells, 0.8 μM SN38 or 20 μM oxaliplatin.

The structures appear in SMILES notation.

Consider `CCc1c2c(nc3ccc(O)cc13)-c1cc3c(c(=O)n1C2)COC(=O)[C@]3(O)CC` [SN38, 7-ethyl-10-hydroxycamptothecin], for which the viability at 0.8 µM in experiment [1] is around 20%. For the same molecule, in experiment [2], the “effect on cellular GSH levels” value is “slightly increased GSH levels”. In addition, the p53 protein level entry in the experiment on p53 (setting [4]) is “essentially no effect on p53 expression”; in the experiment with p53 (setting [5]), “only SN38 induced p53 and p21 expression”; in the experiment on p53 (setting [6]), “markedly induced”. The p21 protein level entry with p21^WAF1/Cip (p21) (setting [4]) was “modestly increased p21 expression”; in the experiment with p21^WAF1/Cip (p21) (setting [5]) it was “only SN38 induced p53 and p21 expression”; in the experiment on p21^WAF1/Cip (p21) (setting [6]) it was “markedly induced”. Moreover, the PARP-1 cleavage result with PARP-1 cleavage was “induced by SN38 in parental and oxaliplatin-resistant, yet not in SN38-resistant, cells”. The SLC1A1 subcellular localization entry in experiment [3] is “marked shift in SLC1A1 localization towards the perinuclear/nuclear region”.

Values taken from article PMC4445981, “The glutamate transport inhibitor DL-Threo-β-Benzyloxyaspartic acid (DL-TBOA) differentially affects SN38- and oxaliplatin-induced death of drug-resistant colorectal cancer cells” (BMC Cancer, 2015).
